Experimental findings from ChEMBL document CHEMBL3396979, “Synthesis and characterization of 1'-C-cyano-2'-fluoro-2'-C-methyl pyrimidine nucleosides as HCV polymerase inhibitors” (Bioorg Med Chem Lett, 2015) are described below.

The structures appear in SMILES notation.

A short description of data set [1]: Inhibition of HCV genotype 1b NS5B RNA dependent RNA polymerase assessed as reduction in triphosphate activity. On the set-up: species or system Hepatitis C virus subtype 1b.
The subject of data set [2] is Hepatitis C virus. In words: Antiviral activity against HCV genotype 1b infected in human HuH7 cells by replicon based assay. It is filed as functional, cell-based, Hepacivirus hominis. Conditions: Huh-7; call rule not given here.
Data set [3] concerns Hepatitis C virus. In words: Antiviral activity against HCV genotype 1a infected in human HuH7 cells by replicon based assay. Type of data set: functional, cell-based, Hepacivirus hominis. Conditions: subtype 1a, Huh-7. (In general: A replicon is a self-replicating genome or part of one, used to study replication in cells.)
For data set [4], the system named is Hepatitis C virus. The data set is described as follows: Antiviral activity against HCV genotype 2a infected in human HuH7 cells by replicon based assay. It is filed as functional, cell-based, Hepacivirus hominis. The conditions noted are these: Huh-7.
Data set [5] can be described thus: Cytotoxicity against human HuH7 cells. It is filed as cell-based, Huh-7.
Data set [6] can be described thus: Drug metabolism in human HuH7 cells bearing HCV replicons assessed as formation of triphosphates at 10 uM after 72 hrs by liquid chromatography coupled to triple quadrupole mass spectrometry. Type of data set: ADME, cell-based. The conditions noted are these: huh-7, 72 h.
Data set [7] in a line: Drug metabolism in human HuH7 cells bearing HCV replicons assessed as formation of uridine-type triphosphates at 10 uM after 72 hrs by liquid chromatography coupled to triple quadrupole mass spectrometry. Type of data set: ADME, cell-based. The conditions noted are these: huh-7, 72 h.
The nature of data set [8]: Inhibition of HCV genotype 2a NS5B RNA dependent RNA polymerase assessed as reduction in triphosphate activity. On the set-up: species or system Hepatitis C virus subtype 2a.
A short description of data set [9]: Inhibition of HCV genotype 3a NS5B RNA dependent RNA polymerase assessed as reduction in triphosphate activity. On the set-up: species or system Hepatitis C virus subtype 3a.
Data set [10] in a line: Inhibition of HCV genotype 4a NS5B RNA dependent RNA polymerase assessed as reduction in triphosphate activity. On the set-up: species or system Hepatitis C virus subtype 4a.

The IC50 is the midpoint of a concentration-inhibition curve. In general, EC50 refers to the concentration giving half of the maximal effect. The Ki is a dissociation constant, usually derived from enzyme kinetics or from competition with a known ligand. The CC50 is the concentration at which the toxic effect on the cells reaches its halfway point. A higher CC50 goes with better tolerance by the cells.

On to `C[C@@]1(O)[C@H](O)[C@@H](CO)O[C@H]1n1ccc(=O)[nH]c1=O`, for which, in data set [1] (read-out: IC50), the IC50 amounted to 1.9 µM. In the data set on Hepatitis C virus [2], the EC50 amounted to 13.1 µM.
Turning to `C[C@@]1(F)[C@H](O)[C@@H](CO)O[C@H]1n1ccc(N)nc1=O`, the values for the concentration for a half-maximal effect (EC50) in the data set with Hepatitis C virus [3] and in the data set with Hepatitis C virus [2] were 0.6 µM and 2.3 µM, respectively. Further, the Ki in [1] worked out at 0.06 µM.
With `C[C@@]1(O)[C@H](O)[C@@H](CO)O[C@@]1(C#N)n1ccc(N)nc1=O`, the concentration giving a half-maximal response (EC50) in the data set on Hepatitis C virus [3] was 76 µM; in the data set on Hepatitis C virus [2], over 89 µM. Besides, the IC50 in data set [1] (read-out: IC50) was 17.7 µM.
As to `C[C@@]1(O)[C@H](O)[C@@H](CO)O[C@@]1(C#N)n1ccc(=O)[nH]c1=O`, the 50% effective concentration (EC50) with Hepatitis C virus [3] and in the data set on Hepatitis C virus [2] was over 89 µM throughout. Besides, the IC50 in data set [1] (read-out: IC50) was determined as 27 µM.
`C[C@@]1(F)[C@H](O)[C@@H](CO)O[C@@]1(C#N)n1ccc(=O)[nH]c1=O`: the EC50 in the data set on Hepatitis C virus [3] and with Hepatitis C virus [2] was over 89 µM each time. Also, the IC50 entry in data set [1] is listed as “Not Active”.
Turning to `C[C@@]1(F)[C@H](O)[C@@H](CO)O[C@@]1(C#N)n1ccc(N)nc1=O`, the EC50 with Hepatitis C virus [3] and in the data set with Hepatitis C virus [2] was over 89 µM each time. In data set [1] (read-out: IC50), the IC50 was determined as 57 µM.
`CC(C)OC(=O)[C@H](C)N[P@](=O)(OC[C@H]1O[C@@](C#N)(n2ccc(N)nc2=O)[C@](C)(F)[C@@H]1O)Oc1ccccc1`: the EC50 amounted to 2.3 µM in the data set with Hepatitis C virus [4], 2.9 µM with Hepatitis C virus [3] and 17.6 µM in the data set with Hepatitis C virus [2]. Besides, the CC50 in [5] was over 89 µM. Moreover, the values for the Drug metabolism result in data set [6] and in data set [7] were “metabolite_detected” and “metabolite_notdetected”, respectively.
`CC(C)OC(=O)[C@H](C)N[P@](=O)(OC[C@H]1O[C@@](C#N)(n2ccc(=O)[nH]c2=O)[C@](C)(F)[C@@H]1O)Oc1ccccc1`: the EC50 in the data set on Hepatitis C virus [4] is over 88 µM; in the data set with Hepatitis C virus [2], 63.5 µM. In addition, the CC50 in data set [5] was over 89 µM. Further, the Drug metabolism entry in data set [6] was “metabolite_detected”.
`C[C@@]1(O)[C@H](O)[C@@H](CO)O[C@H]1n1ccc(N)nc1=O`: in data set [1] (read-out: IC50), the IC50 is 1.7 µM.
On to `C[C@@]1(F)[C@H](O)[C@@H](CO)O[C@H]1n1ccc(=O)[nH]c1=O`, for which the IC50 in data set [8], in [9], in [10] and in data set [1] (read-out: IC50) was 0.7 µM each time. The EC50 in the data set on Hepatitis C virus [3] and with Hepatitis C virus [2] was over 89 µM throughout.
